In ChEMBL document CHEMBL6153096, “Development of Potent and Selective CK1α Molecular Glue Degraders” (J Med Chem, 2025):
One block for each compound: values may come before it. Active and inactive are the calls of the source. No cut-off for these calls is given here.

How the values were obtained:
[1] = biological target: T1, Cereblon/Casein kinase I alpha (Homo sapiens, UniProt P48729+Q96SW2); experiment: Molecular glue activity at CRBN/HiBiT-tagged CK1-alpha in human Jurkat cells assessed as induction of CK1-alpha degradation incubated for 5 hrs by Nano-Glo HiBiT assay; format: cell-based
MOLM-14 [2] = experiment: Antiproliferative activity against human MOLM-14 cells with CRBN-/- incubated for 72 hrs by CellTiter-Glo Luminescent Cell Viability Assay; format: functional, cell-based
[3] = biological target: T1, Cereblon/Casein kinase I alpha; experiment: Molecular glue activity at CRBN/CK1-alpha in human MOLM-13 cells assessed as induction of CK1-alpha degradation at 1 uM incubated for 5 hrs by Western blot analysis; format: cell-based
Target sequence in this assay (P48729 2-337 limits assumed): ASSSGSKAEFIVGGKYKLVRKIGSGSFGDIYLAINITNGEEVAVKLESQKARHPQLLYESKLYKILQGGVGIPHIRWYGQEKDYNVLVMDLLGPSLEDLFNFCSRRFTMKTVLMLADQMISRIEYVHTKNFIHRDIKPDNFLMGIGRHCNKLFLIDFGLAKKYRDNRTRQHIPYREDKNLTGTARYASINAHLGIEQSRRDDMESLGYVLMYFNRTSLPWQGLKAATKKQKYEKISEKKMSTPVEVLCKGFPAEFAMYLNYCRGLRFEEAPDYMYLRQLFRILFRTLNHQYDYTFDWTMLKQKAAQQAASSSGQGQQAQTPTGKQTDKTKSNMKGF
Target sequence in this assay (Q96SW2 whole entry partner): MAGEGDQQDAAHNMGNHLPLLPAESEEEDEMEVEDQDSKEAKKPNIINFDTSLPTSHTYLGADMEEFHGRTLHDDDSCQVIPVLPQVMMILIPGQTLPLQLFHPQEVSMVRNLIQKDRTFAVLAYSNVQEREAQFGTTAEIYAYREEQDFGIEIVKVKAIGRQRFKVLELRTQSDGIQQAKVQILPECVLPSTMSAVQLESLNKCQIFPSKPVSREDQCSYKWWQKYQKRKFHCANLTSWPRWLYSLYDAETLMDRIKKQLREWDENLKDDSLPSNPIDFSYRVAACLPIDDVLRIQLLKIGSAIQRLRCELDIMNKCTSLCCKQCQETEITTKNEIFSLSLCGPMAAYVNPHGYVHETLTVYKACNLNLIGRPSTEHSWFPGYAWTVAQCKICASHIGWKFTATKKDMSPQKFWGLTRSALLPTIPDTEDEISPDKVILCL

MOLM-14 [4] = experiment: Antiproliferative activity against human MOLM-14 cells incubated for 72 hrs by CellTiter-Glo Luminescent Cell Viability Assay; format: functional, cell-based
[5] = biological target: T1, Cereblon/Casein kinase I alpha; experiment: Molecular glue activity at CRBN/CK1-alpha in human MOLM-14 cells assessed as induction of CK1-alpha degradation at 1 uM incubated for 5 hrs by Western blot analysis; format: cell-based
Target sequence in this assay (P48729 2-337 limits assumed): as the sequence (P48729 2-337 limits assumed) above
Target sequence in this assay (Q96SW2 whole entry partner): as the sequence (Q96SW2 whole entry partner) above

MOLM-13 = experiment: Antiproliferative activity against human MOLM-13 cells incubated for 72 hrs by CellTiter-Glo Luminescent Cell Viability Assay; format: functional, cell-based; details: MOLM-13, 72 h
[6] = Metabolic stability in mouse liver microsomes assessed as intrinsic clearance; format: ADME, Microsome
[7] = Metabolic stability in mouse liver microsomes assessed as half life; format: ADME, Microsome; details: for t1/2: microsomes
[8] = Metabolic stability in human liver microsomes assessed as half life; format: ADME, Microsome
[9] = Metabolic stability in human liver microsomes assessed as intrinsic clearance; format: ADME, Microsome
MOLT-4 [10] = experiment: Induction of GSPT1 degradation in human MOLT-4 cells at 1 uM incubated for 5 hrs by quantitative mass spectrometry based proteomic analysis; format: cell-based
MOLT-4 [11] = experiment: Induction of IKZF1 degradation in human MOLT-4 cells at 1 uM incubated for 5 hrs by quantitative mass spectrometry based proteomic analysis; format: cell-based
MOLT-4 [12] = experiment: Induction of WEE1 degradation in human MOLT-4 cells at 1 uM incubated for 5 hrs by quantitative mass spectrometry based proteomic analysis; format: cell-based
[13] = biological target: Zinc finger protein Aiolos (Homo sapiens) (UniProt Q9UKT9); experiment: Induction of IKZF3 degradation in human MOLT-4 cells at 1 uM incubated for 5 hrs by quantitative mass spectrometry based proteomic analysis; format: cell-based
[14] = biological target: T1, Cereblon/Casein kinase I alpha; experiment: Molecular glue activity at CRBN/CK1-alpha in human MOLM-13 cells assessed as increase in p53 level at 0.1 to 1 uM incubated for 24 hrs by Western blot analysis; format: cell-based; details: dose 0.1-1 µM
Target sequence in this assay (P48729 2-337 limits assumed): as the sequence (P48729 2-337 limits assumed) above
Target sequence in this assay (Q96SW2 whole entry partner): as the sequence (Q96SW2 whole entry partner) above

[15] = biological target: T1, Cereblon/Casein kinase I alpha; experiment: Molecular glue activity at CRBN/CK1-alpha in human MOLM-14 cells assessed as increase in p21 level at 0.1 to 1 uM incubated for 24 hrs by Western blot analysis; format: cell-based; details: dose 0.1-1 µM
Target sequence in this assay (P48729 2-337 limits assumed): as the sequence (P48729 2-337 limits assumed) above
Target sequence in this assay (Q96SW2 whole entry partner): as the sequence (Q96SW2 whole entry partner) above

[16] = biological target: T1, Cereblon/Casein kinase I alpha; experiment: Molecular glue activity at CRBN/CK1-alpha in human MOLM-14 cells assessed as increase in p53 level at 0.1 to 1 uM incubated for 24 hrs by Western blot analysis; format: cell-based; details: dose 0.1-1 µM
Target sequence in this assay (P48729 2-337 limits assumed): as the sequence (P48729 2-337 limits assumed) above
Target sequence in this assay (Q96SW2 whole entry partner): as the sequence (Q96SW2 whole entry partner) above

[17] = biological target: T1, Cereblon/Casein kinase I alpha; experiment: Molecular glue activity at CRBN/CK1-alpha in human MOLM-13 cells assessed as increase in p21 level at 0.1 to 1 uM incubated for 24 hrs by Western blot analysis; format: cell-based; details: dose 0.1-1 µM
Target sequence in this assay (P48729 2-337 limits assumed): as the sequence (P48729 2-337 limits assumed) above
Target sequence in this assay (Q96SW2 whole entry partner): as the sequence (Q96SW2 whole entry partner) above

[18] = biological target: T1, Cereblon/Casein kinase I alpha; experiment: Molecular glue activity at CRBN/CK1-alpha in human MOLT-4 cells with CRBN-/- assessed as induction of CK1-alpha degradation at 1 uM incubated for 5 hrs by quantitative mass spectrometry based proteomic analysis; format: cell-based
[19] = biological target: T1, Cereblon/Casein kinase I alpha; experiment: Molecular glue activity at CRBN/CK1-alpha in human MOLM-13 cells assessed as increase in MDM2 level at 0.1 to 1 uM incubated for 24 hrs by Western blot analysis; format: cell-based; details: dose 0.1-1 µM
[20] = biological target: T1, Cereblon/Casein kinase I alpha; experiment: Molecular glue activity at CRBN/CK1-alpha in human MOLM-14 cells assessed as increase in MDM2 level at 0.1 to 1 uM incubated for 24 hrs by Western blot analysis; format: cell-based; details: dose 0.1-1 µM
[21] = biological target: T1, Cereblon/Casein kinase I alpha; experiment: Molecular glue activity at CRBN/CK1-alpha in human MOLT-4 cells assessed as induction of CK1-alpha degradation at 100 uM incubated for 5 hrs by Western blot analysis; format: cell-based
[22] = biological target: T1, Cereblon/Casein kinase I alpha; experiment: Molecular glue activity at CRBN/CK1-alpha in human MOLT-4 cells assessed as induction of CK1-alpha degradation at 1 uM incubated for <3 hrs by Western blot analysis; format: cell-based
[23] = biological target: Zinc finger protein Helios (Homo sapiens) (UniProt Q9UKS7); experiment: Induction of IKZF2 degradation in human MOLT-4 cells at 1 uM incubated for 5 hrs by quantitative mass spectrometry based proteomic analysis; format: cell-based
Jurkat = experiment: Induction of HiBiT-tagged WEE1 degradation in human Jurkat cells incubated for 5 hrs by Nano-Glo HiBiT assay relative to control; format: cell-based
[24] = Induction of HiBiT-tagged WEE1 degradation in human Jurkat cells incubated for 5 hrs by Nano-Glo HiBiT assay; format: cell-based

Chain of Zinc finger protein Aiolos (Homo sapiens) (Q9UKT9 whole entry): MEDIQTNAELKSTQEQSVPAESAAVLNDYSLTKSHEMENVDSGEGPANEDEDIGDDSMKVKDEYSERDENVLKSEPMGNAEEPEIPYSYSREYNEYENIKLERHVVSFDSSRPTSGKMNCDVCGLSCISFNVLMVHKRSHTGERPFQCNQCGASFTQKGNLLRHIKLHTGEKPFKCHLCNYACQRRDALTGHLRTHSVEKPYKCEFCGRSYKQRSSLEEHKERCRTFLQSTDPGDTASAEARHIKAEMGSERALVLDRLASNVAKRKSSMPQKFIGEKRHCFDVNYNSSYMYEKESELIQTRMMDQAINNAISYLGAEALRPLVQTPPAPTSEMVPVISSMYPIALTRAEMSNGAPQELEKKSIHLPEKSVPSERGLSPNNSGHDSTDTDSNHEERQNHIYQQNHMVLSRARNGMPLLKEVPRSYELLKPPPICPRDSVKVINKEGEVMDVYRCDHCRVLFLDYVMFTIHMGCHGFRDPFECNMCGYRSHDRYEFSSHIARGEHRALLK
Chain of Zinc finger protein Helios (Homo sapiens) (Q9UKS7 whole entry): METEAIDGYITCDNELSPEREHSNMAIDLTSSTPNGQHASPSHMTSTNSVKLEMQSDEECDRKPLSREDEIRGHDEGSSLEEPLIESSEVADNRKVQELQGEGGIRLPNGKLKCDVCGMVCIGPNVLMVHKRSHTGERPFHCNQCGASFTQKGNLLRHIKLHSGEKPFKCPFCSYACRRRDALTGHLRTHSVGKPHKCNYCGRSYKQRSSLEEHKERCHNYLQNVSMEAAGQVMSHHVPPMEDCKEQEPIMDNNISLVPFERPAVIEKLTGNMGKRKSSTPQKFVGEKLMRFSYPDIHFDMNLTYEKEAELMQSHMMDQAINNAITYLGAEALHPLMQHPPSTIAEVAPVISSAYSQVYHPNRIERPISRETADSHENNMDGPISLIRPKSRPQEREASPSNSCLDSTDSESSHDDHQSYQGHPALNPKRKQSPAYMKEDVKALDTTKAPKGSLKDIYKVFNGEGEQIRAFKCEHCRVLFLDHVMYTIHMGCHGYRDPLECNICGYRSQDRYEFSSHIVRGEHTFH

DC50 [1]: 11.1 nM
Compound: O=C1CCC(N2Cc3cc(NC(=O)c4nc5ccccc5[nH]4)ccc3C2=O)C(=O)N1 (stereo unspecified)

DC50 [1]: > 10000 nM
Compound: O=C1CCC(N2Cc3cc(CNC(=O)c4cn5ccccc5n4)ccc3C2=O)C(=O)N1 (stereo unspecified)

DC50 [1]: 61 nM
Compound: O=C1CCC(N2Cc3cc(NC(=O)c4nc5ccccn5n4)ccc3C2=O)C(=O)N1 (stereo unspecified)

DC50 [1]: 7.56 nM
Activity [13]: inactive
Compound: O=C1CCC(N2Cc3cc(NC(=O)c4cc5ccccc5cn4)ccc3C2=O)C(=O)N1 (stereo unspecified)
Activity (MOLT-4 [10]): inactive
Activity (MOLT-4 [11]): inactive
Activity (MOLT-4 [12]): inactive

DC50 [1]: 61 nM
Compound: O=C1CCC(N2Cc3cc(NC(=O)c4cc5ncccn5n4)ccc3C2=O)C(=O)N1 (stereo unspecified)

Activity [14]: Active
Activity [15]: Active
Activity [16]: Active
Activity [17]: Active
Activity [19]: Active
Activity [20]: Active
Compound: COc1ccc2cc(C(=O)Nc3ccc4c(c3)CN(C3CCC(=O)NC3=O)C4=O)ccc2c1 (stereo unspecified)
Activity [18]: Not active; Compound Induced Ck1-Alpha Degradation In A Crbn Dependent Manner

DC50 [1]: 87 nM
Compound: O=C1CCC(N2Cc3cc(NC(=O)c4cc5ccccn5c4)ccc3C2=O)C(=O)N1 (stereo unspecified)

DC50 [1]: 5.7 nM
Activity [14]: Active
Activity [15]: Active
Activity [16]: Active
Activity [3]: Active
Activity [17]: Active
Activity [19]: Active
Activity [5]: Active
IC50 (MOLM-13): 41 nM
Activity [20]: Active
CLH [6]: 9 µL/min/mg
t1/2 [7]: 1.26 h
Activity [21]: Active; Induces Maximum Degradation
t1/2 [8]: > 2 h
Activity [22]: Active
CLH [9]: < 6 µL/min/mg
Compound: O=C1CCC(N2Cc3cc(NC(=O)c4cn5ccccc5n4)ccc3C2=O)C(=O)N1 (stereo unspecified)
Activity (MOLM-14 [2]): inactive
Activity (MOLM-14 [4]): Active

DC50 [1]: 79 nM
Compound: O=C1CCC(N2C(=O)c3ccc(NC(=O)c4cnc5ccccc5c4)cc3C2=O)C(=O)N1 (stereo unspecified)

DC50 [1]: 88 nM
Compound: O=C1CCC(N2C(=O)c3ccc(NC(=O)c4cn5ccccc5n4)cc3C2=O)C(=O)N1 (stereo unspecified)

DC50 [1]: 46.8 nM
Activity [14]: Active
Activity [15]: Active
Activity [16]: Active
Activity [3]: Active
Activity [17]: Active
Activity [19]: Active
Activity [13]: inactive
Activity [5]: Active
IC50 (MOLM-13): 2400 nM
Activity [20]: Active
CLH [6]: 11 µL/min/mg
t1/2 [7]: 1.09 h
t1/2 [8]: > 2 h
Activity [22]: Active
CLH [9]: < 6 µL/min/mg
Compound: O=C1CCC(N2Cc3cc(-c4cnc5ccccc5c4)ccc3C2=O)C(=O)N1 (stereo unspecified)
Activity (MOLM-14 [2]): inactive
Activity (MOLT-4 [10]): inactive
Activity (MOLT-4 [11]): inactive
Activity [18]: Not active; Compound Induced Ck1-Alpha Degradation In A Crbn Dependent Manner
Activity (MOLT-4 [12]): inactive
Activity (MOLM-14 [4]): Active

DC50 [1]: 1.6 nM
EC90 [1]: 25 nM
Activity [3]: Active
Activity [5]: Active
IC50 (MOLM-13): 29 nM
Compound: O=C1CCC(N2Cc3cc(NC(=O)c4cn5cccc(C(F)(F)F)c5n4)ccc3C2=O)C(=O)N1 (stereo unspecified)
Activity (MOLM-14 [2]): inactive
Activity (MOLM-14 [4]): Active

CLH [6]: 33 µL/min/mg
half-life ([7]; liver microsomes): 0.348 h
t1/2 [8]: 0.657 h
CLH [9]: 18 µL/min/mg
Compound: CCN(CC)CCNC(=O)c1c(C)[nH]c(/C=C2\C(=O)Nc3ccc(F)cc32)c1C [SUNITINIB]

DC50 [1]: 82 nM
Compound: O=C1CCC(N2Cc3cc(NC(=O)c4cnc5ccccn45)ccc3C2=O)C(=O)N1 (stereo unspecified)

The remaining lines, values behind:

Compound: O=C1CCC(N2Cc3cc(NC(=O)c4cn5cc(Cl)ccc5n4)ccc3C2=O)C(=O)N1 (stereo unspecified)
DC50 [1]: 1.3 nM
EC90 [1]: 14.9 nM

Compound: COc1ccn2cc(C(=O)Nc3ccc4c(c3)CN(C3CCC(=O)NC3=O)C4=O)nc2c1 (stereo unspecified)
DC50 [1]: 3.1 nM
EC90 [1]: 53 nM

Compound: Cc1c(C(=O)Nc2ccc3c(c2)CN(C2CCC(=O)NC2=O)C3=O)nc2ccccn12 (stereo unspecified)
DC50 [1]: 8.4 nM

Compound: O=C1CCC(N2Cc3cc(NC(=O)c4cn5cc(F)ccc5n4)ccc3C2=O)C(=O)N1 (stereo unspecified)
DC50 [1]: 6.1 nM
EC90 [1]: 45.5 nM

Compound: COc1ccc2nc(C(=O)Nc3ccc4c(c3)CN(C3CCC(=O)NC3=O)C4=O)cn2c1 (stereo unspecified)
DC50 [1]: 1.1 nM
EC90 [1]: 16.2 nM
Activity (MOLM-14 [2]): inactive
Activity [3]: Active
Activity (MOLM-14 [4]): Active
Activity [5]: Active
IC50 (MOLM-13): 23 nM
CLH [6]: < 6 µL/min/mg
t1/2 [7]: > 2 h
t1/2 [8]: 0.553 h
CLH [9]: 21 µL/min/mg

Compound: O=C1CCC(N2Cc3cc(NC(=O)c4cnc5ccccc5n4)ccc3C2=O)C(=O)N1 (stereo unspecified)
DC50 [1]: 8.8 nM

Compound: O=C1CCC(N2Cc3c(NC(=O)c4cnc5ccccc5c4)cccc3C2=O)C(=O)N1 (stereo unspecified)
DC50 [1]: > 10000 nM

Compound: O=C1CCC(N2Cc3cc(NC(=O)c4cc5ccccn5n4)ccc3C2=O)C(=O)N1 (stereo unspecified)
DC50 [1]: 4.7 nM
Activity (MOLM-14 [2]): inactive
Activity [3]: Active
Activity (MOLM-14 [4]): Active
Activity [5]: Active
IC50 (MOLM-13): 14 nM
CLH [6]: 111 µL/min/mg
t1/2 [7]: 0.105 h
t1/2 [8]: 1.09 h
CLH [9]: 11 µL/min/mg

Compound: O=C1CCC(N2Cc3cc(NC(=O)c4cn5ccc(F)cc5n4)ccc3C2=O)C(=O)N1 (stereo unspecified)
DC50 [1]: 17.5 nM
EC90 [1]: 135 nM

Compound: Cc1cccc2nc(C(=O)Nc3ccc4c(c3)CN(C3CCC(=O)NC3=O)C4=O)cn12 (stereo unspecified)
DC50 [1]: 3.3 nM
EC90 [1]: 35.3 nM

Compound: O=C1CCC(N2Cc3ccc(NC(=O)c4cn5ccccc5n4)cc3C2=O)C(=O)N1 (stereo unspecified)
DC50 [1]: > 10000 nM

Compound: O=C1CCC(N2Cc3cc(CNC(=O)c4cnc5ccccc5c4)ccc3C2=O)C(=O)N1 (stereo unspecified)
DC50 [1]: > 10000 nM

Compound: COc1cccn2cc(C(=O)Nc3ccc4c(c3)CN(C3CCC(=O)NC3=O)C4=O)nc12 (stereo unspecified)
DC50 [1]: 8.1 nM
EC90 [1]: 73.1 nM

Compound: O=C1CCC(N2Cc3c(CNC(=O)c4cnc5ccccc5c4)cccc3C2=O)C(=O)N1 (stereo unspecified)
DC50 [1]: 138 nM

Compound: CN1C(=O)CCC(N2Cc3cc(NC(=O)c4cn5ccccc5n4)ccc3C2=O)C1=O (stereo unspecified)
DC50 [1]: > 10000 nM
Activity [3]: Active
Activity [5]: Active

Compound: O=C1CCC(N2Cc3cc(Nc4noc5ccccc45)ccc3C2=O)C(=O)N1 (stereo unspecified)
Activity [14]: Active
Activity [15]: Active
Activity [16]: Active
Activity [17]: Active
Activity [18]: Not active; Compound Induced Ck1-Alpha Degradation In A Crbn Dependent Manner
Activity [19]: Active
Activity [20]: Active

Compound: O=C1CCC(N2Cc3cc(-c4cc5ccccc5cn4)ccc3C2=O)C(=O)N1 (stereo unspecified)
DC50 [1]: 10 nM
Activity (MOLT-4 [10]): Active
Activity [23]: Active
Activity [18]: Not active; Compound Induced Ck1-Alpha Degradation In A Crbn Dependent Manner
Activity (MOLT-4 [12]): Active
Emax (Jurkat): 80%
DC50 [24]: 43000 nM

Compound: O=C1CCC(N2Cc3cc(NC(=O)c4cnc5ccccc5c4)ccc3C2=O)C(=O)N1 (stereo unspecified)
DC50 [1]: 79 nM
Activity (MOLT-4 [10]): inactive
Activity (MOLT-4 [11]): inactive
Activity (MOLT-4 [12]): inactive
Activity [13]: inactive
CLH [6]: < 6 µL/min/mg
t1/2 [7]: > 2 h
t1/2 [8]: 0.39 h
CLH [9]: 30 µL/min/mg
